This passage reports IC50 results from US20100204246A1, “5-AMINOPYRAZOL-3-YL-3H-IMIDAZO (4,5-B) PYRIDINE DERIVATIVES AND THEIR USE FOR THE TREATMENT OF CANCER” (AstraZeneca AB, priority 2007, published 2010).

The target in one assay is T1, human Trk A kinase (Homo sapiens, UniProt P04629).
T1 construct: HIS; made in house; host or cells: SF9 cells
Put plainly: Trk A kinase assay (Alphascreen, phosphorylation of PolyEY-biotin substrate). It is filed as biochemical. Particulars: 0.838 ng/ml Trk A, 70 μM ATP, 20 minutes, room temperature; read-out: IC50 (Trk inhibitory activity). As to the method: Trk A kinase activity was determined by measuring the kinase's ability to phosphorylate synthetic tyrosine residues within a generic polypeptide substrate using an Amplified Luminescent Proximity Assay (Alphascreen) technology (PerkinElmer, 549 Albany Street, Boston, Mass.).
To measure Trk A kinase activity, the intracellular domain of a HIS-tagged human Trk A kinase (amino acids 442-796 of Trk A, Swiss-Prot Primary Accession Number P04629) may be expressed in SF9 cells and purified using standard nickel column chromatography. After incubation of the kinase with a biotinylated substrate and adenosine triphosphate (ATP) for 20 minutes at room temperature, the kinase reaction may be stopped by the addition of 30 mM ethylenediaminetetraacetic acid (EDTA). The reaction may be performed in 384 well microtitre plates and the reaction products may be detected with the addition of strepavidin coated Donor Beads and phosphotyrosine-specific antibodies coated Acceptor Beads using the EnVision Multilabel Plate Reader after an overnight incubation at room temperature.
A general note: In Alpha technology, singlet oxygen from a donor bead excites a nearby acceptor bead.

The next assay has as its target T2, human JAK2 (Homo sapiens, UniProt O60674).
T2 construct: human JAK2, amino acids 808-end; His6 (C); purchased Upstate Biotechnology; host or cells: baculovirus in Sf21 cells
Put plainly: JAK2 kinase assay (Alphascreen, phosphorylation of biotinylated peptide substrate). The conditions noted are these: 150pM JAK2 enzyme, 30 μM ATP, 60 minutes, room temperature; read-out: IC50 (JAK inhibitory activity). It is filed as biochemical. As to the method:
JAK2 kinase activity was determined by measuring the kinase's ability to phosphorylate synthetic tyrosine residues within a generic polypeptide substrate using an Amplified Luminescent Proximity Assay (Alphascreen) technology (PerkinElmer, 549 Albany Street, Boston, Mass.).
To measure JAK2 kinase activity, a commercially available purified enzyme may be used. The enzyme may be a C-terminal His6-tagged, recombinant, human JAK2, amino acids 808-end, (Genbank Accession number NM 004972) expressed by baculovirus in Sf21 cells (Upstate Biotechnology MA). After incubation of the kinase with a biotinylated substrate and adenosine triphosphate (ATP) for 60 minutes at room temperature, the kinase reaction may be stopped by the addition of 30 mM ethylenediaminetetraacetic acid (EDTA). The reaction may be performed in 384 well microtitre plates and the reaction products may be detected with the addition of streptavidin coated Donor Beads and phosphotyrosine-specific antibodies coated Acceptor Beads using the EnVision Multilabel Plate Reader after an overnight incubation at room temperature.

pIC50: −log10 of the molar value.

T1 sequence (P04629 442-796): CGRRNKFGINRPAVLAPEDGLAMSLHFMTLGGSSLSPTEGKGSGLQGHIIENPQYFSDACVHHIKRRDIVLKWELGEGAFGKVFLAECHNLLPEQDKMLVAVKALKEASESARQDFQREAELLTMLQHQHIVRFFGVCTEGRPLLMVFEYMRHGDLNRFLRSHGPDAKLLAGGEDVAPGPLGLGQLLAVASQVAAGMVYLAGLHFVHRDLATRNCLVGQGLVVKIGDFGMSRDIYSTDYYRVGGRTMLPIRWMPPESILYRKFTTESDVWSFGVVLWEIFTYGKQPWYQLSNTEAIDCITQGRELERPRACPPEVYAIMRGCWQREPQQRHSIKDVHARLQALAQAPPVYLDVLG
T2 sequence (O60674 808-1132 limits assumed): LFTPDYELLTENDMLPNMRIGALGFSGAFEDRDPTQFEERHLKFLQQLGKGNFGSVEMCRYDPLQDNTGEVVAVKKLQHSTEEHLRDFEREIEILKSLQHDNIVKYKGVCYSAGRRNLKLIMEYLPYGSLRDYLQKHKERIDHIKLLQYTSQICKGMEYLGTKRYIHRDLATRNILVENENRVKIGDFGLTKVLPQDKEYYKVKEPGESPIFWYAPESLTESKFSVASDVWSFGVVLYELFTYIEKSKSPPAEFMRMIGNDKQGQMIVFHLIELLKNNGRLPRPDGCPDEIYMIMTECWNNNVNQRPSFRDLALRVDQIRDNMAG

On to `C[C@@H](c1ccc(F)cn1)n1cnc2cc(F)c(Nc3cc(C4CC4)[nH]n3)nc21` [Example 1, N-(5-Cyclopropyl-1H-pyrazol-3-yl)-6-fluoro-3-[(1S)-1-(5-fluoropyridin-2-yl)-ethyl]-3H-imidazo[4,5-b]-pyridin-5-amine], for which, at human Trk A kinase, the pIC50 (commonly the negative decadic logarithm of the IC50, by convention in mol/L) was 8.52.

Consider `C[C@@H](c1ccc(F)cn1)n1cnc2ccc(Nc3cc(C4CC4)[nH]n3)nc21` [Example 2, N-(5-Cyclopropyl-1H-pyrazol-3-yl)-3-[(1S)-1-(5-fluoropyridin-2-yl)ethyl]-3H-imidazo[4,5-b]pyridin-5-amine], for which, on human Trk A kinase, the pIC50 was 7.64. In the case of `CCOc1cc(Nc2nc3c(cc2F)ncn3[C@@H](C)c2ccc(F)cn2)n[nH]1` [Example 3, N-(5-Ethoxy-1H-pyrazol-3-yl)-6-fluoro-3-[(1S)-1-(5-fluoropyridin-2-yl)-ethyl]-3H-imidazo[4,5-b]pyridin-5-amine], the pIC50 is 7.96 at human JAK2 and 8.52 at human Trk A kinase. In the case of `CC(C)Oc1cc(Nc2nc3c(cc2F)ncn3[C@@H](C)c2ccc(F)cn2)n[nH]1` [Example 4, 6-Fluoro-3-[(1S)-1-(5-fluoropyridin-2-yl)-ethyl]-N-(5-isopropoxy-1H-pyrazol-3-yl)-3H-imidazo[4,5-b]pyridin-5-amine], the pIC50 at human Trk A kinase is 8.52.

In the case of `C[C@@H](c1ncc(F)cn1)n1cnc2cc(F)c(Nc3cc(C4CC4)[nH]n3)nc21` [Example 5, N-(5-Cyclopropyl-1H-pyrazol-3-yl)-6-fluoro-3-[(1S)-1-(5-fluoropyrimidin-2-yl)-ethyl]-3H-imidazo[4,5-b]pyridin-5-amine], at human Trk A kinase, the pIC50 is 8.52. Same read-out and setting: under `CC(C)Oc1cc(Nc2nc3c(cc2F)ncn3[C@@H](C)c2ncc(F)cn2)n[nH]1` [Example 6, 6-Fluoro-3-[(1S)-1-(5-fluoropyrimidin-2-yl)-ethyl]-N-(5-isopropoxy-1H-pyrazol-3-yl)-3H-imidazo[4,5-b]pyridin-5-amine] stands 8.52. Still for that read-out and setting: with `COc1cc(Nc2nc3c(cc2F)ncn3[C@@H](C)c2ncc(F)cn2)n[nH]1` [Example 7, 6-Fluoro-3-[(1S)-1-(5-fluoropyrimidin-2-yl)-ethyl]-N-(5-methoxy-1H-pyrazol-3-yl)-3H-imidazo[4,5-b]pyridin-5-amine] the figure was 8.52; with `CC(C)Oc1cc(Nc2nc3c(cc2F)ncn3[C@@H](CO)c2ccc(F)cn2)n[nH]1` [Example 8, (2R)-2-{6-Fluoro-5-[(5-isopropoxy-1H-pyrazol-3-yl)-amino]-3H-imidazo[4,5-b]pyridine-3-yl}-2-(5-fluoropyridin-2-yl)-ethanol], 8.52; with `COc1cc(Nc2nc3c(cc2F)ncn3[C@@H](CO)c2ccc(F)cn2)n[nH]1` [Example 9, (2R)-2-{6-Fluoro-5-[(5-methoxy-1H-pyrazol-3-yl)-amino]-3H-imidazo[4,5-b]pyridin-3-yl}-2-(5-fluoropyridin-2-yl)-ethanol], 8.52. As for `CCOc1cc(Nc2nc3c(cc2F)ncn3[C@@H](CO)c2ccc(F)cn2)n[nH]1` [Example 10, (2R)-2-{5-[(5-Ethoxy-1H-pyrazol-3-yl)-amino]-6-fluoro-3H-imidazo[4,5-b]pyridin-3-yl}-2-(5-fluoropyridin-2-yl)-ethanol], the pIC50 on human Trk A kinase was 8.52. On to `COc1cc(Nc2nc3c(cc2F)ncn3[C@@H](C)c2ccc(F)cn2)n[nH]1` [Example 11, 6-Fluoro-3-[(1S)-1-(5-fluoropyridin-2-yl)-ethyl]-N-(5-methoxy-1H-pyrazol-3-yl)-3H-imidazol-[4,5-b]pyridin-5-amine], for which, at human Trk A kinase, the pIC50 was 8.52. Still for that read-out and setting: with `Cc1cc(Nc2nc3c(cc2F)ncn3[C@@H](C)c2ncc(F)cn2)n[nH]1` [Example 12, 6-Fluoro-3-[(1S)-1-(5-fluoropyrimidin-2-yl)ethyl]-N-(5-methy 1-1H-pyrazol-3-yl)-3H-imidazo[4,5-b]pyridin-5-amine] the figure was 7.18; with `Cc1cc(Nc2nc3c(cc2F)ncn3[C@@H](C)c2ccc(F)cn2)n[nH]1` [Example 13, 6-Fluoro-3-[(1S)-1-(5-fluoropyridin-2-yl)ethyl]-N-(5-methyl-1H-pyrazol-3-yl)-3H-imidazo[4,5-b]pyridin-5-amine], 7.68. Consider `Cc1cc(Nc2nc3c(cc2F)[nH]c(=O)n3[C@@H](C)c2ncc(F)cn2)n[nH]1` [Example 14, 6-Fluoro-3-[(1S)-1-(5-fluoropyrimidin-2-yl)ethyl]-5-[(5-methyl-1H-pyrazol-3-yl)amino]-1,3-dihydro-2H-imidazo[4,5-b]pyridin-2-one], for which, on human Trk A kinase, the pIC50 was 5.48.

In the case of `Cc1cc(Nc2nc3c(cc2F)nc(C)n3[C@@H](C)c2ncc(F)cn2)n[nH]1` [Example 15, 6-Fluoro-3-[(1S)-1-(5-fluoropyrimidin-2-yl)ethyl]-2-methyl-N-(5-methyl-1H-pyrazol-3-yl)-3H-imidazo[4,5-b]pyridin-5-amine], at human Trk A kinase, the negative logarithm of the IC50 (pIC50) was 5.03. Take `Cc1cc(Nc2nc3c(cc2F)ncn3[C@@H](CO)c2ccc(F)cn2)n[nH]1` [Example 16, (2R)-2-{6-Fluoro-5-[(5-methyl-1H-pyrazol-3-yl)amino]-3H-imidazo[4,5-b]pyridin-3-yl}-2-(5-fluoropyridin-2-yl)ethanol]: the pIC50 at human Trk A kinase is 7.14. Same read-out and setting: under `Cc1cc(Nc2nc3c(cc2F)ncn3Cc2ncc(F)cc2F)n[nH]1` [Example 17, 3-[(3,5-Difluoropyridin-2-yl)methyl]-6-fluoro-N-(5-methyl-1H-pyrazol-3-yl)-3H-imidazo[4,5-b]pyridin-5-amine] stands 6.55; under `Cc1cc(Nc2nc3c(cc2F)nc(C)n3Cc2ncc(F)cc2F)n[nH]1` [Example 18, 3-[(3,5-Difluoropyridin-2-yl)methyl]-6-fluoro-2-methyl-N-(5-methyl-1H-pyrazol-3-yl)-3H-imidazo[4,5-b]pyridin-5-amine], 6.41.
